Structures are written as SMILES.

In one test the target is T1, human recombinant PDE9 enzyme (Homo sapiens, UniProt O76083).
T1 construct: made in house; host or cells: SF-9 insect cells
T1 sequence (O76083 whole entry): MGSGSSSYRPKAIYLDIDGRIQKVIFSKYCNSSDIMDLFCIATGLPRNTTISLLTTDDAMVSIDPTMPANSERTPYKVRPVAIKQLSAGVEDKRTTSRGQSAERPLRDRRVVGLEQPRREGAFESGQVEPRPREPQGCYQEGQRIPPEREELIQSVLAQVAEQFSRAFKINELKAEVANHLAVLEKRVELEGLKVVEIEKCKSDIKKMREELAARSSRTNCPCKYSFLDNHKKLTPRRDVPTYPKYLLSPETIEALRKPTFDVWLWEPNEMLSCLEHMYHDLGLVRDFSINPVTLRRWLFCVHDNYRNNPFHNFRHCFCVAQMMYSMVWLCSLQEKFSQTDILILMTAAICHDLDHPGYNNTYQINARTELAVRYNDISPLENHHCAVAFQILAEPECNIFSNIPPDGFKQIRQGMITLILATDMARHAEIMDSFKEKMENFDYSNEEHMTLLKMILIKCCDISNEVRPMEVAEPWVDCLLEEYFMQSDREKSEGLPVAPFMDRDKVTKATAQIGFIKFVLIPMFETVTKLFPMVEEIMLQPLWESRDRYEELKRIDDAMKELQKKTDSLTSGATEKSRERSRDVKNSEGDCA
The test is described as follows: Phosphodiesterase 9 (PDE9) inhibitory activity, Scintillation Proximity (SPA) assay. It counts as biochemical.
Conditions: not given
The method in brief:
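Recombinant human PDE9 from SF-9 cell lysate supernatant, diluted so that ≤20% of [3H]cGMP substrate was hydrolysed to 5′GMP. Reaction started with enzyme and run 30 min at room temperature with 2% DMSO final. SPA beads were counted after >300 min; background came from a high concentration of a PDE inhibitor.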
One may read the IC50 as the midpoint of a concentration-inhibition curve. In the case of `C[C@@H]1CN(Cc2ccccc2)C[C@H]1c1nc2c(cnn2C2CCOCC2)c(=O)[nH]1` [Example 61, 6-[(3S,4S)-1-benzyl-4-methylpyrrolidin-3-yl]-1-(tetrahydro-2H-pyran-4-yl)-1,5-dihydro-4H-pyrazolo[3,4-d]pyrimidin-4-one], the 50% inhibitory concentration (IC50) is 7.35 nM.

As to `Cc1ncc(CN2C[C@@H](C)[C@H](c3nc4c(cnn4C4CCOCC4)c(=O)[nH]3)C2)cn1` [Example 73, 6-{(3S,4S)-4-methyl-1-[(2-methylpyrimidin-5-yl)methyl]pyrrolidin-3-yl}-1-(tetrahydro-2H-pyran-4-yl)-1,5-dihydro-4H-pyrazolo[3,4-d]pyrimidin-4-one], the IC50 was found to be 6.01 nM.

On to `Cc1cnc(CN2C[C@@H](C)[C@H](c3nc4c(cnn4C4CCOCC4)c(=O)[nH]3)C2)cn1` [Example 75, 6-{(3S,4S)-4-methyl-1-[(5-methylpyrazin-2-yl)methyl]pyrrolidin-3-yl}-1-(tetrahydro-2H-pyran-4-yl)-1,5-dihydro-4H-pyrazolo[3,4-d]pyrimidin-4-one], for which the IC50 worked out at 5.46 nM.

In the case of `Cc1ccc(CN2C[C@@H](C)[C@H](c3nc4c(cnn4C4CCOCC4)c(=O)[nH]3)C2)cn1` [Example 79, 6-{(3S,4S)-4-methyl-1-[(6-methylpyridin-3-yl)methyl]pyrrolidin-3-yl}-1-(tetrahydro-2H-pyran-4-yl)-1,5-dihydro-4H-pyrazolo[3,4-d]pyrimidin-4-one], the 50% inhibitory concentration (IC50) is 3.72 nM.

Still in this test, the particulars now being: human recombinant PDE9 from SF-9 cells; 50 nM [3H]cGMP; room temperature, 30 min; Examples 3-114; read-out: G5678A (U): IC50.
Regarding `CC[C@@H]1CN(Cc2ccccc2)C[C@H]1c1nc2c(cnn2C(C)C)c(=O)[nH]1` [Example 40, 6-[(3S,4S)-1-benzyl-4-ethylpyrrolidin-3-yl]-1-isopropyl-1,5-dihydro-4H-pyrazolo[3,4-d]pyrimidin-4-one], the IC50 was found to be 44.5 nM.

Regarding `Cc1ncc(CN2C[C@@H](C)[C@H](c3nc4c(cnn4C(C)C)c(=O)[nH]3)C2)cn1` [Example 41, 1-isopropyl-6-{(3S,4S)-4-methyl-1-[(2-methylpyrimidin-5-yl)methyl]pyrrolidin-3-yl}-1,5-dihydro-4H-pyrazolo[3,4-d]pyrimidin-4-one], the IC50 turned out to be 63.8 nM.

`O=c1[nH]c(C2CCN(Cc3ccccc3)C2)nc2c1cnn2C1CCCC1` (stereo not shown) [Example 42, 6-(1-benzylpyrrolidin-3-yl)-1-cyclopentyl-1,5-dihydro-4H-pyrazolo[3,4-d]pyrimidin-4-one]: the IC50 amounted to 268 nM.

On to `COc1ccc(CN2C[C@@H](C)[C@H](c3nc4c(cnn4C(C)C)c(=O)[nH]3)C2)cn1` [Example 43, 1-isopropyl-6-{(3S,4S)-1-[(6-methoxypyridin-3-yl)methyl]-4-methylpyrrolidin-3-yl}1,5-dihydro-4H-pyrazolo[3,4-d]pyrimidin-4-one], for which the half-maximal inhibitory concentration (IC50) came to 36.4 nM.

As to `Cc1cc(CN2C[C@@H](C)[C@H](c3nc4c(cnn4C4CCCC4)c(=O)[nH]3)C2)n(C)n1` [Example 47, 1-cyclopentyl-6-{(3S,4S)-1-[(1,3-dimethyl-1H-pyrazolo-5-yl)methyl]-4-methylpyrrolidin-3-yl}-1,5-dihydro-4H-pyrazolo[3,4-d]pyrimidin-4-one], the IC50 is 5.53 nM.

As to `C[C@@H]1CN(Cc2cnn3c2CCCC3)C[C@H]1c1nc2c(cnn2C2CCCC2)c(=O)[nH]1` [Example 48, 1-cyclopentyl-6-[(3S,4S)-4-methyl-1-(4,5,6,7-tetrahydropyrazolo[1,5-a]pyridin-3-ylmethyl)pyrrolidin-3-yl]-1,5-dihydro-4H-pyrazolo[3,4-d]pyrimidin-4-one], the 50% inhibitory concentration (IC50) came to 40.7 nM.

In the case of `C[C@@H]1CN(Cc2nc3ccccc3n2C)C[C@H]1c1nc2c(cnn2C2CCCC2)c(=O)[nH]1` [Example 49, 1-cyclopentyl-6-{(3S,4S)-4-methyl-1-[(1-methyl-1H-benzimidazol-2-yl)methyl]pyrrolidin-3-yl}-1,5-dihydro-4H-pyrazolo[3,4-d]pyrimidin-4-one], the IC50 worked out at 4.55 nM.

For the compound `Cc1cnc(CN2C[C@@H](C)[C@H](c3nc4c(cnn4C(C)C)c(=O)[nH]3)C2)cn1` [Example 50, 1-isopropyl-6-{(3S,4S)-4-methyl-1-[(5methylpyrazin-2-yl)methyl]pyrrolidin-3-yl}-1,5-dihydro-4H-pyrazolo[3,4-d]pyrimidin-4-one], the IC50 was 125 nM.

With `C[C@@H]1CN(Cc2cc3ccccc3nn2)C[C@H]1c1nc2c(cnn2C2CCCC2)c(=O)[nH]1` [Example 51, 6-[(3S,4S)-1-(cinnolin-3-ylmethyl)-4-methylpyrrolidin-3-yl]-1-cyclopentyl-1,5-dihydro-4H-pyrazolo[3,4-d]pyrimidin-4-one], the IC50 was determined as 8.19 nM.

Take `Cc1nccc(CN2C[C@@H](C)[C@H](c3nc4c(cnn4C4CCCC4)c(=O)[nH]3)C2)n1` [Example 53, 1-cyclopentyl-6-{(3S,4S)-4-methyl-1-[(2-methylpyrimidin-4-yl)methyl]pyrrolidin-3-yl}-1,5-dihydro-4H-pyrazolo[3,4-d]pyrimidin-4-one]: the IC50 worked out at 7.3 nM.

Consider `C[C@@H]1CN(Cc2ccnc(N(C)C)n2)C[C@H]1c1nc2c(cnn2C2CCCC2)c(=O)[nH]1` [Example 54, 1-cyclopentyl-6-[(3S,4S)-1-{[2-(dimethylamino)pyrimidin-4-yl]methyl}-4-methylpyrrolidin-3-yl]-1,5-dihydro-4H-pyrazolo[3,4-d]pyrimidin-4-one], for which the IC50 was found to be 14.7 nM.

`CC(C)n1ncc2c(=O)[nH]c([C@@H]3CN(Cc4ccnc5cccnc45)C[C@H]3C)nc21` [Example 65, 1-isopropyl-6-[(3S,4S)-4-methyl-1-(1,5-naphthyridin-4-ylmethyl)pyrrolidin-3-yl]-1,5-dihydro-4H-pyrazolo[3,4-d]pyrimidin-4-one]: the IC50 is 17.1 nM.

For the compound `CC(C)n1ncc2c(=O)[nH]c([C@@H]3CN(Cc4ccnc5ncccc45)C[C@H]3C)nc21` [Example 66], the IC50 was 18.1 nM.

For the compound `CC(C)n1ncc2c(=O)[nH]c([C@@H]3CN(Cc4ccnc5ccccc45)C[C@H]3C)nc21` [Example 67], the IC50 was 9.74 nM.

Consider `CC(C)n1ncc2c(=O)[nH]c([C@@H]3CN(Cc4ccnc5nccnc45)C[C@H]3C)nc21` [Example 68, 1-isopropyl-6-[(3S,4S)-4-methyl-1-(pyrido[2,3-b]pyrazin-8-ylmethyl)pyrrolidin-3-yl]-1,5-dihydro-4H-pyrazolo[3,4-d]pyrimidin-4-one], for which the IC50 worked out at 36.7 nM.

Turning to `COc1ccc(CN2C[C@@H](C)[C@H](c3nc4c(cnn4C4CCOCC4)c(=O)[nH]3)C2)cn1` [Example 76, 6-{(3S,4S)-1-[(6-methoxypyridin-3-yl)methyl]-4-methylpyrrolidin-3-yl}-1-(tetrahydro-2H-pyran-4-yl)-1,5-dihydro-4H-pyrazolo[3,4-d]pyrimidin-4-one], the IC50 was found to be 3.5 nM.

In the case of `C[C@@H]1CN(Cc2cnc3ccccc3c2)C[C@H]1c1nc2c(cnn2C2CCOCC2)c(=O)[nH]1` [Example 77, 6-[(3S,4S)-4-methyl-1-(quinolin-3-ylmethyl)pyrrolidin-3-yl]-1-(tetrahydro-2H-pyran-4-yl)-1,5-dihydro-4H-pyrazolo[3,4-d]pyrimidin-4-one], the concentration for half-maximal inhibition (IC50) amounted to 1.24 nM.

On to `Cc1nccc(CN2C[C@@H](C)[C@H](c3nc4c(cnn4C4CCOCC4)c(=O)[nH]3)C2)n1` [Example 78, 6-{(3S,4S)-4-methyl-1-[(2-methylpyrimidin-4-yl)methyl]pyrrolidin-3-yl}-1-(tetrahydro-2H-pyran-4-yl)-1,5-dihydro-4H-pyrazolo[3,4-d]pyrimidin-4-one], for which the IC50 was found to be 4.35 nM.
